# According to patent publication US20210244704A1, “Cabazitaxel in mCRPC Patients Previously Treated with Docetaxel and Who Failed a Prior androgen signaling targeted inhibitor Agent” (SANOFI MATURE IP, priority 2019, published 2021):
# Marks after values point to notes of the source that are not given here.
# Columns and labels:
# [1] = test system: symptomatic skeletal events in mCRPC patients; experiment: Same clinical study: symptomatic skeletal events (SSE); assay type: in vivo, human
# From the text: Time to symptomatic skeletal event rate: is defined as the time interval between the date of randomization and the date of the occurrence of the first event defining a symptomatic skeletal event (occurrence of a new symptomatic fracture, use of radiation therapy to relieve bone pain, occurrence of spinal cord compression or cancer-related orthopedic surgical intervention).
# SSEs were defined as either the use of external beam radiation to relieve bone pain, occurrence of new symptomatic pathologic fractures, occurrence of spinal cord compression, or tumor-related orthopedic surgical intervention. SSEs were evaluated at baseline, at each visit, at the end of treatment, and every 12 weeks during follow-up. Standard imaging (bone scans and computed tomography or magnetic resonance imaging of the pelvis, abdomen, and chest) was scheduled at baseline and every 12 weeks until imaging-based disease progression. Pathologic fractures and spinal cord compression were assessed by imaging as needed throughout the study. Time to SSE was defined as time from randomization until first documented SSE.
# Efficacy analysis used all randomized patients. Stratified log-rank tests were used to analyze time-to-event data. The primary analysis compared radiographic progression-free survival between the two treatment groups using a stratified log-rank test. Survival curves were generated using Kaplan-Meier estimates. Hazard ratios and associated 95% confidence intervals [CI] were estimated using a stratified Cox proportional hazards model. Stratified Cochran-Mantel-Haenszel chi-square tests were used to analyze categorical data. Descriptive statistics were used to summarize patient characteristics. The safety population (randomized patients who received at least one dose of study treatment) was used for all safety analyses.
# HRQL of mCRPC patients = experiment: Same clinical study: health-related quality of life, FACT-P questionnaire; assay type: in vivo, human
# Experimental: Pain response was defined as a decrease≥30% from baseline in BPI-SF pain intensity score with no increased analgesic use. HRQL was assessed using the Functional Assessment of Cancer Therapy-Prostate (FACT-P) questionnaire. Pain intensity was defined using item 3 of the validated Brief Pain Inventory-Short Form (BPI-SF), which rates pain at its worst in the last 24 hours on a scale of 0 (no pain) to 10 (worst imaginable pain). Analgesic consumption was reported by local investigators and coded by the World Health Organization's analgesic ladder (0=no analgesic; 1=non-opioid analgesics; 2=opioid analgesics for moderate pain; 3=opioids for severe pain). […] A clinically meaningful improvement or deterioration of total FACT-P score was defined as a difference of ±10 points from baseline. Clinically meaningful changes in HRQL and pain response were confirmed at two consecutive evaluations≥3 weeks apart during the on-treatment period. Survival curves were generated by Kaplan-Meier estimates.
# Time to deterioration was defined on two consecutive evaluations, ≥3 weeks apart as follows: • decrease of ≥10 points from baseline for FACT-P total score • decrease of ≥3 points from baseline for physical, social, emotional and functional well-being • decrease of ≥2 points from baseline for the pain PCS subscale • decrease of ≥9 points from baseline for FACT-G total and FACT-P TOI subscales
# FACT-P, a validated 39-item questionnaire evaluated 5 wellbeing domains: physical (PWB, 0-28), social and family (SWB, 0-28), emotional (EWB, 0-24), functional (FWB, 0-28), and prostate specific (PCS, 0-48).
# Total FACT-P score (PWB+SWB+EWB+FWB+PCS; 0-156), total FACT-G score (PWB+SWB+EWB+FWB; 0-108), FACT-P trial outcome index (PWB+FWB+PCS; 0-104), and PCS-Pain were calculated. The FACT-P overall score ranges from 0 to 156, higher values indicating a higher HRQL
# To control for type I error due to multiple comparisons, a hierarchical testing procedure was applied for the primary and key secondary end points. […] Further tests were stopped once a comparison was found not statistically significant at two-sided alpha level of 0.05. Descriptive statistics for FACT-P and EQ-5D-5L scores were provided for all cycles for which the number of evaluable patients reached ≥20% of the PRO population. For qualitative parameters, proportions of patients with deterioration, no change, and improvement were provided.
# The comparison of changes from baseline on PROs was analyzed using a mixed linear repeated measures model where treatment is a fixed effect variable and subject is a random effect variable. Stratification variables were included in the model as covariates as well as the interaction treatment visit. The least square means by treatment group with the corresponding 95% CI obtained from the mixed model were presented graphically. No adjustments for multiplicity were made.
# Compliance with the planned assessment schedule was calculated at baseline and for each treatment cycle as the proportion of patients still receiving study treatment at this time point. No formal imputation for missing data was carried out and reasons for missing data were not centrally recorded. FACT-P total score was evaluable when >80% of questions were answered. For individual FACT-P subscales, a score was evaluable when >50% of the questions in the subscale domain were answered. If <50% of the questions were missing in any FACT-P subscale, the subscale score could be imputed by prorated subscale scores using the following formula: Prorated subscale score=[Sum of question scores]×[N of questions in subscale][…][N of questions answered].
# [2] = cabazitaxel vs abiraterone or enzalutamide
# [3] = cabazitaxel vs abiraterone or enzalutamide, all cycles
# [4] = cabazitaxel vs abiraterone or enzalutamide, end of treatment visit
smiles,measurement,setting,value
"CO[C@H]1C(=O)[C@]2(C)[C@@H](OC)C[C@H]3OC[C@@]3(OC(C)=O)[C@H]2[C@H](OC(=O)c2ccccc2)[C@]2(O)C[C@H](OC(=O)[C@H](O)[C@@H](NC(=O)OC(C)(C)C)c3ccccc3)C(C)=C1C2(C)C [Cabazitaxel, 4α-acetoxy-2α-benzoyloxy-5β,20-epoxy-1p-hydroxy-7β,10β-dimethoxy-9-oxo-11-taxen-13α-yl (2R,3S)-3-tert-butoxycarbonylamino-2-hydroxy-3-phenylpropionate]",Patients estimated to have a symptomatic skeletal event at 18 months,[1]; 18 months,28.8%
same,Kaplan-Meier probability of not having symptomatic skeletal events,[1]; at 3 months,92.6%
same,Kaplan-Meier probability of not having symptomatic skeletal events,[1]; at 6 months,85.8%
same,Kaplan-Meier probability of not having symptomatic skeletal events,[1]; at 12 months,79.4%
same,Kaplan-Meier probability of not having symptomatic skeletal events,[1]; at 18 months,71.2%
same,"Time to symptomatic skeletal events, hazard ratio",[1]; cabazitaxel vs androgen signaling targeted inhibitor,0.59
same,Surgery to the bone (first SSE),"[1]; human, in vivo",0 n
same,Deterioration in FACT-P from baseline,HRQL of mCRPC patients,22.2%
same,"Emotional well-being, Kaplan-Meier probability of no deterioration at 3 months",HRQL of mCRPC patients; 3 months,91.1
same,"FACT-G total, Kaplan-Meier probability of no deterioration at 3 months",HRQL of mCRPC patients; 3 months,82.3
same,"FACT-P total, Kaplan-Meier probability of no deterioration at 3 months",HRQL of mCRPC patients; 3 months,86.2
same,"Functional well-being, Kaplan-Meier probability of no deterioration at 3 months",HRQL of mCRPC patients; 3 months,73.7
same,"Pain-related subscale, Kaplan-Meier probability of no deterioration at 3 months",HRQL of mCRPC patients; 3 months,81.6
same,"Physical well-being, Kaplan-Meier probability of no deterioration at 3 months",HRQL of mCRPC patients; 3 months,76.0
same,"Prostate-specific concerns, Kaplan-Meier probability of no deterioration at 3 months",HRQL of mCRPC patients; 3 months,83.6
same,"Social or family well-being, Kaplan-Meier probability of no deterioration at 3 months",HRQL of mCRPC patients; 3 months,78.7
same,"Trial outcome index, Kaplan-Meier probability of no deterioration at 3 months",HRQL of mCRPC patients; 3 months,86.1
same,"FACT-P total, deterioration events",HRQL of mCRPC patients; Table 6,29.6%
same,"Emotional well-being, time to deterioration HR",HRQL of mCRPC patients; [2],0.46**
same,"FACT-G total, time to deterioration HR",HRQL of mCRPC patients; [2],0.71
same,"FACT-P total, time to deterioration HR",HRQL of mCRPC patients; [2],0.72
same,"Functional well-being, time to deterioration HR",HRQL of mCRPC patients; [2],0.81
same,"Pain-related subscale, time to deterioration HR",HRQL of mCRPC patients; [2],0.74
same,"Physical well-being, time to deterioration HR",HRQL of mCRPC patients; [2],0.82
same,"Prostate-specific concerns, time to deterioration HR",HRQL of mCRPC patients; [2],0.68
same,"Social or family well-being, time to deterioration HR",HRQL of mCRPC patients; [2],1.03
same,"Trial outcome index, time to deterioration HR",HRQL of mCRPC patients; [2],0.65
same,"Pain-related subscale score change from baseline, least squares mean difference",HRQL of mCRPC patients; [3],+1.12 to +2.26
same,"Social or family well-being change from baseline, mean difference",HRQL of mCRPC patients; [3],−0.37 to −2.25
same,"FACT-P total score change from baseline, mean difference",HRQL of mCRPC patients; [4],+4.58
same,"Pain-related subscale score change from baseline, mean difference",HRQL of mCRPC patients; [4],+0.62
same,"Social or family well-being change from baseline, mean difference",HRQL of mCRPC patients; [4],−0.94
same,"FACT-P total score change from baseline, least squares mean difference","HRQL of mCRPC patients; cabazitaxel vs abiraterone or enzalutamide, until Cycle 5",+2.67 to +5.21
same,"Emotional well-being, deterioration events","HRQL of mCRPC patients; human, in vivo",16.7%
same,"Emotional well-being, deterioration events n/nT","HRQL of mCRPC patients; human, in vivo",18/108
same,"Emotional well-being, median time to deterioration","HRQL of mCRPC patients; human, in vivo",NE (NE-NE)
same,"FACT-G total, deterioration events","HRQL of mCRPC patients; human, in vivo",27.8%
same,"FACT-G total, deterioration events n/nT","HRQL of mCRPC patients; human, in vivo",30/108
same,"FACT-G total, median time to deterioration","HRQL of mCRPC patients; human, in vivo",14.8 (8.8-NE) months
same,"FACT-P total, deterioration events n/nT","HRQL of mCRPC patients; human, in vivo",32/108
same,"FACT-P total, median time to deterioration","HRQL of mCRPC patients; human, in vivo",14.8 (6.3-NE) months
same,"Functional well-being, deterioration events","HRQL of mCRPC patients; human, in vivo",36.1%
same,"Functional well-being, deterioration events n/nT","HRQL of mCRPC patients; human, in vivo",39/108
same,"Functional well-being, median time to deterioration","HRQL of mCRPC patients; human, in vivo",NE (5.9-NE)
same,Improvement in total FACT-P score from baseline,"HRQL of mCRPC patients; human, in vivo",25.0%
same,"Pain-related subscale, deterioration events","HRQL of mCRPC patients; human, in vivo",33.3%
same,"Pain-related subscale, deterioration events n/nT","HRQL of mCRPC patients; human, in vivo",36/108
same,"Pain-related subscale, median time to deterioration","HRQL of mCRPC patients; human, in vivo",10.4 (8.5-NE) months
same,"Physical well-being, deterioration events","HRQL of mCRPC patients; human, in vivo",36.1%
same,"Physical well-being, deterioration events n/nT","HRQL of mCRPC patients; human, in vivo",39/108
same,"Physical well-being, median time to deterioration","HRQL of mCRPC patients; human, in vivo",14.8 (4.9-NE) months
same,"Prostate-specific concerns, deterioration events","HRQL of mCRPC patients; human, in vivo",32.4%
same,"Prostate-specific concerns, deterioration events n/nT","HRQL of mCRPC patients; human, in vivo",35/108
same,"Prostate-specific concerns, median time to deterioration","HRQL of mCRPC patients; human, in vivo",14.8 (9.8-NE) months
same,"Social or family well-being, deterioration events","HRQL of mCRPC patients; human, in vivo",32.4%
same,"Social or family well-being, deterioration events n/nT","HRQL of mCRPC patients; human, in vivo",35/108
same,"Social or family well-being, median time to deterioration","HRQL of mCRPC patients; human, in vivo",14.8 (7.9-14.8) months
same,"Trial outcome index, deterioration events","HRQL of mCRPC patients; human, in vivo",26.9%
same,"Trial outcome index, deterioration events n/nT","HRQL of mCRPC patients; human, in vivo",29/108
same,"Trial outcome index, median time to deterioration","HRQL of mCRPC patients; human, in vivo",14.8 (8.5-NE) months
same,"FACT-P total, median time to deterioration","HRQL of mCRPC patients; human, in vivo, listed as cabazitaxel",14.8 months
same,Improvement in total FACT-P score from baseline,"HRQL of mCRPC patients; ±10 points, confirmed",27 patients
